Results taken from PubChem BioAssay AID248 (DTP/NCI, 2004).
Where “and” joins values, the source holds several entries; their conditions need not be identical. Equal entries are not always repeated. Inconclusive results and toxic doses are left out. No stated cut-off is given here; in the data, active means T/C of 150% or more; inactive means T/C below 125%.

Test system: L1210 leukemia ip in BDF1 mice, survival T/C
Assay: NCI In Vivo Anticancer Drug Screen. Data for tumor model L1210 Leukemia (intraperitoneal) in B6D2F1 (BDF1) mice
Details: endpoint: mean survival time, higher = longer survival
How it was run: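 In this screen, tumor-bearing mice given compound are compared to those given vehicle, and their survival values are reported as a treated-to-control quotient.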

[1] = dose: 25.0 mg/kg/injection, schedule: Q01DX009 (ip), vehicle: saline with Tween-80
[2] = dose: 100.0 mg/kg/injection, schedule: Q01DX001 (ip), vehicle: saline
[3] = dose: 200.0 mg/kg/injection, schedule: Q01DX001 (ip), vehicle: saline
[4] = dose: 400.0 mg/kg/injection, schedule: Q01DX001 (ip), vehicle: saline
[5] = dose: 50.0 mg/kg/injection, schedule: Q01DX009 (ip), vehicle: Klucel (hydroxypropylcellulose) (HPC)
[6] = dose: 100.0 mg/kg/injection, schedule: Q01DX009 (ip), vehicle: Klucel (hydroxypropylcellulose) (HPC)
[7] = dose: 200.0 mg/kg/injection, schedule: Q01DX009 (ip), vehicle: Klucel (hydroxypropylcellulose) (HPC)
[8] = dose: 50.0 mg/kg/injection, schedule: Q01DX001 (ip), vehicle: saline

Measured: T/C

N#CS/C=C\C(=O)O
inactive: dose: 3.12 mg/kg/injection, schedule: Q01DX001 (ip), vehicle: saline with Tween-80 95 % of control and 101 % of control | dose: 3.12 mg/kg/injection, schedule: Q01DX009 (ip), vehicle: saline with Tween-80 93 % of control | dose: 3.12 mg/kg/injection, schedule: Q04DX003 (ip), vehicle: saline with Tween-80 107 % of control | dose: 6.25 mg/kg/injection, schedule: Q01DX001 (ip), vehicle: saline with Tween-80 95 % of control and 101 % of control | dose: 6.25 mg/kg/injection, schedule: Q01DX009 (ip), vehicle: saline with Tween-80 98 % of control and 102 % of control | dose: 6.25 mg/kg/injection, schedule: Q04DX003 (ip), vehicle: saline with Tween-80 96 % of control and 100 % of control | dose: 12.5 mg/kg/injection, schedule: Q01DX001 (ip), vehicle: saline with Tween-80 94 % of control and 103 % of control and 105 % of control | dose: 12.5 mg/kg/injection, schedule: Q01DX009 (ip), vehicle: saline with Tween-80 95 % of control and 102 % of control | dose: 12.5 mg/kg/injection, schedule: Q04DX003 (ip), vehicle: saline with Tween-80 102 % of control and 103 % of control | dose: 25.0 mg/kg/injection, schedule: Q01DX001 (ip), vehicle: saline with Tween-80 94 % of control and 103 % of control | [1] 100 % of control and 92 % of control | dose: 25.0 mg/kg/injection, schedule: Q04DX003 (ip), vehicle: saline with Tween-80 93 % of control and 98 % of control | dose: 50.0 mg/kg/injection, schedule: Q01DX001 (ip), vehicle: saline with Tween-80 100 % of control | dose: 50.0 mg/kg/injection, schedule: Q04DX003 (ip), vehicle: saline with Tween-80 97 % of control

COc1ccc(Cl)cc1/C=C/C=O
inactive: [2] 91 % of control | [3] 92 % of control | [4] 102 % of control

Oc1ccc(-c2nc3ccccc3nc2-c2ccc(O)cc2O)c(O)c1
inactive: [2] 96 % of control | [3] 93 % of control | [4] 96 % of control

COc1ccc2cnnc(NN)c2c1
inactive: dose: 75.0 mg/kg/injection, schedule: Q01DX001 (ip), vehicle: other 97 % of control

O=C(OCCCl)OCCCl
inactive: [1] 98 % of control | dose: 50.0 mg/kg/injection, schedule: Q01DX009 (ip), vehicle: saline with Tween-80 103 % of control and 91 % of control | dose: 100.0 mg/kg/injection, schedule: Q01DX009 (ip), vehicle: saline with Tween-80 93 % of control | dose: 200.0 mg/kg/injection, schedule: Q01DX009 (ip), vehicle: saline with Tween-80 92 % of control

NC(=O)N1c2ccccc2C=Cc2ccccc21
inactive: dose: 12.5 mg/kg/injection, schedule: Q01DX009 (ip), vehicle: Klucel (hydroxypropylcellulose) (HPC) 93 % of control | dose: 25.0 mg/kg/injection, schedule: Q01DX009 (ip), vehicle: Klucel (hydroxypropylcellulose) (HPC) 93 % of control | [5] 96 % of control | [6] 89 % of control | dose: 100.0 mg/kg/injection, schedule: Q04DX002 (ip), vehicle: Klucel (hydroxypropylcellulose) (HPC) 103 % of control | [7] 94 % of control | dose: 200.0 mg/kg/injection, schedule: Q04DX002 (ip), vehicle: Klucel (hydroxypropylcellulose) (HPC) 110 % of control | dose: 400.0 mg/kg/injection, schedule: Q04DX002 (ip), vehicle: Klucel (hydroxypropylcellulose) (HPC) 110 % of control

CC(=O)NCCNC(C)=O
inactive: [8] 102 % of control | [2] 108 % of control | [3] 117 % of control | [4] 96 % of control

Cc1cc(=O)[nH]c(N/N=C/c2ccco2)n1
inactive: [5] 96 % of control | [6] 96 % of control | dose: 100.0 mg/kg/injection, schedule: Q04DX003 (ip), vehicle: Klucel (hydroxypropylcellulose) (HPC) 87 % of control | [7] 95 % of control | dose: 200.0 mg/kg/injection, schedule: Q04DX003 (ip), vehicle: Klucel (hydroxypropylcellulose) (HPC) 90 % of control

CCN(CC)CCNC(C)=O
inactive: dose: 100.0 mg/kg/injection, schedule: Q04DX003 (ip), vehicle: saline 104 % of control | dose: 200.0 mg/kg/injection, schedule: Q04DX003 (ip), vehicle: saline 101 % of control | dose: 400.0 mg/kg/injection, schedule: Q04DX003 (ip), vehicle: saline 97 % of control

O=C(SCCSC(=O)c1ccccc1)c1ccccc1
inactive: dose: 75.0 mg/kg/injection, schedule: Q04DX003 (ip), vehicle: other 98 % of control | dose: 150.0 mg/kg/injection, schedule: Q04DX003 (ip), vehicle: other 106 % of control | dose: 300.0 mg/kg/injection, schedule: Q04DX003 (ip), vehicle: other 112 % of control

OCCCc1ccccc1O
inactive: [8] 102 % of control | [2] 102 % of control | [3] 94 % of control | [4] 91 % of control
